Results as given in PMC12040169 (PLOS Biology, 2025).

Assay: in vitro
Details: human, hela cells

O=C(C1CCCN(c2nc3c(-c4ccccc4)csc3c(=O)[nH]2)C1)N1CCOCC1 (stereo not shown) [CBK215582]
viability at 28.5 h, 10 µM (% viability): 83.7%

COc1ccc(CCN(Cc2ccc(Cl)c(Cl)c2)C(=O)NCCCSC)cc1OC [CBK158758]
viability at 28.5 h, 10 µM (% viability): 91.1%

COc1ccc(C(C)C)cc1-c1cnc(N)c(Nc2ccc3[nH]ccc3c2)n1 [CBK063827]
viability at 28.5 h, 10 µM (% viability): 97.1%

Nc1cccc(-c2nccnc2NCc2cccnc2)c1 [CBK089310]
viability at 28.5 h, 10 µM (% viability): 105%

CCN1CCN(C(=O)CN(Cc2ccccc2)S(=O)(=O)c2c(C)cc(C)cc2C)CC1 [CBK266670]
viability at 28.5 h, 10 µM (% viability): 98.1%

CCOc1ccc(NC(=O)NC(=O)C2CCN(C(C)=O)CC2)cc1 [CBK034852]
viability at 28.5 h, 10 µM (% viability): 119%

CCN(CC)CCN1C(=O)C(O)=C(C(=O)c2cc3ccccc3o2)C1c1ccccn1 (stereo not shown) [CBK266413]
viability at 28.5 h, 10 µM (% viability): 86.1%

O=c1[nH]c(/C=C\c2cccc(OCCOc3ccccc3)c2)c([N+](=O)[O-])c(=O)[nH]1 [CBK266840]
viability at 28.5 h, 10 µM (% viability): 105%

O=C(CN1C2CCC1CC(O)(c1ccco1)C2)Nc1ccccc1F (stereo not shown) [CBK284109]
viability at 28.5 h, 10 µM (% viability): 96.7%

CC1(C)SC(NCC2CCCCC2)=NC1=O [CBK067808]
viability at 28.5 h, 10 µM (% viability): 91.2%

Nc1ncc(-c2ccc(C(=O)N3CCOCC3)cc2)nc1C(=O)NC1CCCCC1 [CBK149160]
viability at 28.5 h, 10 µM (% viability): 89.3%

O=C(O)c1cc(C(=O)O)n(Cc2ccc(Cl)cc2Cl)n1 [CBK268283]
viability at 28.5 h, 10 µM (% viability): 103%

Nc1nc(OCc2ccc3c(c2)OCO3)cnc1/C=C/c1ccccc1 [CBK145123]
viability at 28.5 h, 10 µM (% viability): 92.7%

CCNC(=O)c1cnc(-c2ccc(F)cc2)c(-c2ccncc2)c1 [CBK037477]
viability at 28.5 h, 10 µM (% viability): 101%

O=[N+]([O-])c1cccc(S(=O)(=O)Nc2nnc(C(F)(F)F)s2)c1 [CBK062002]
viability at 28.5 h, 10 µM (% viability): 118%

CSCCC(=O)N1CCN(C(=O)c2ccco2)CC1 [CBK144468]
viability at 28.5 h, 10 µM (% viability): 93.5%

CC(C)C(=O)N1CC2(CCN(CCc3cccc4ccccc34)CC2)c2ccccc21 [CBK136978]
viability at 28.5 h, 10 µM (% viability): 101%

O=C(NCCCn1ccnc1)c1cc2ncc(Br)cn2n1 [CBK277080]
viability at 28.5 h, 10 µM (% viability): 97.6%

COc1cccc2cc(C3CN(C(=O)C(C)(C)NC(=O)OC(C)(C)C)CC3C(=O)O)oc12 (stereo not shown) [CBK001348]
viability at 28.5 h, 10 µM (% viability): 102%

CC1C(=O)N(c2ccc(Cl)c(Cl)c2)C(=N)N1c1nc(N(C)C)nc(N(C)C)n1 (stereo not shown) [CBK263182]
viability at 28.5 h, 10 µM (% viability): 93.2%

Cc1cccc2c1[nH]c1nc(N/N=C\c3ccc(-c4cccc([N+](=O)[O-])c4)o3)nnc12 [CBK262373]
viability at 28.5 h, 10 µM (% viability): 96%

COc1ccc(-c2cncc(N3CCN(C)CC3)n2)cc1 [CBK065378]
viability at 28.5 h, 10 µM (% viability): 91.8%

CC(C)S(=O)(=O)n1ccn(-c2cccc(C(F)(F)F)c2)c1=O [CBK106577]
viability at 28.5 h, 10 µM (% viability): 88%

Cn1c(=O)c2ncn(CC(=O)Nc3cccc(C(=O)O)c3)c2n(C)c1=O [CBK266838]
viability at 28.5 h, 10 µM (% viability): 98.4%

O=C(CC(CN1CCN(Cc2ccccn2)CC1)C(=O)O)Nc1ccc(F)cc1 (stereo not shown) [CBK286800]
viability at 28.5 h, 10 µM (% viability): 86.8%

OC(COCc1ccco1)CN1CCc2sccc2C1C1CC1 (stereo not shown) [CBK305167]
viability at 28.5 h, 10 µM (% viability): 119%

Cc1cn(S(=O)(=O)c2ccc(Cl)cc2)cn1 [CBK026492]
viability at 28.5 h, 10 µM (% viability): 113%

O=S(=O)(c1ccccc1)c1nc(-c2ccco2)oc1NCc1cccnc1 [CBK287610]
viability at 28.5 h, 10 µM (% viability): 69.5%

O=C(Nc1nnc(C2=COCCO2)o1)c1cccc(Cl)c1 [CBK287417]
viability at 28.5 h, 10 µM (% viability): 83.5%

COc1ccc(F)cc1-c1ccc(CC2(C(=O)NCc3cccs3)CCOCC2)cc1 [CBK285540]
viability at 28.5 h, 10 µM (% viability): 112%

Cc1c(-c2ccc(OCC(N)=O)cc2)nc2ccc(Br)cc2c1C(=O)O [CBK287050]
viability at 28.5 h, 10 µM (% viability): 93.1%

CN1CCN(C)C(COc2nc3cc(Cl)c(Cl)cc3nc2N2CCCC2)C1 (stereo not shown) [CBK115294]
viability at 28.5 h, 10 µM (% viability): 92%

OCCc1ccc(Oc2ncc(C(F)(F)F)cc2Cl)cc1 [CBK161643]
viability at 28.5 h, 10 µM (% viability): 94.6%

C/C(=N\OCC(=O)N(Cc1ccccc1)c1ccccc1C(=O)O)c1cccs1 [CBK077414]
viability at 28.5 h, 10 µM (% viability): 94.2%

CC(C)(C)OCc1[nH]n(CCc2ccccc2)c(=O)c1Cc1c(Cl)cccc1Cl [CBK091452]
viability at 28.5 h, 10 µM (% viability): 89.3%

O=C(COc1ccc([N+](=O)[O-])cc1)Nc1ccc(CN2CCCCC2)cc1 [CBK266204]
viability at 28.5 h, 10 µM (% viability): 118%

O=C(NCc1ccco1)c1cc(S(=O)(=O)N2CCOCC2)ccc1Br [CBK269907]
viability at 28.5 h, 10 µM (% viability): 90.7%

Cc1nc(NC(CC(C)C)C(=O)O)c2nc(C)oc2n1 (stereo not shown) [CBK022157]
viability at 28.5 h, 10 µM (% viability): 115%

CCCC(=O)NC(NC(=S)Nc1ccccc1Cl)C(Cl)(Cl)Cl (stereo not shown) [CBK261026]
viability at 28.5 h, 10 µM (% viability): 106%

CN(CC(=O)O/N=C(\N)c1cccnc1)S(=O)(=O)c1ccccc1 [CBK267684]
viability at 28.5 h, 10 µM (% viability): 94.3%

Nc1ncnc(N(c2ccccc2)c2ccccc2)n1 [CBK288139]
viability at 28.5 h, 10 µM (% viability): 104%

CN1CCN(CCC(=O)N2c3ccccc3Sc3ccc(C(F)(F)F)cc32)CC1 [CBK278221C]
viability at 28.5 h, 10 µM (% viability): 103%

O=C(O)Cc1cc2c(n1Cc1ccc(F)cc1)CCCC2=O [CBK283866]
viability at 28.5 h, 10 µM (% viability): 93.8%

c1ncc(OC2CCNC2)nc1OCCN1CCOCC1 (stereo not shown) [CBK077311T]
viability at 28.5 h, 10 µM (% viability): 91.2%

COc1ccc(OC(=O)N2CCC3(CC2)CC(=O)N(Cc2ccc(S(C)(=O)=O)cc2)C3=O)cc1 [CBK155952]
viability at 28.5 h, 10 µM (% viability): 99.3%

CN(C)c1ccc(-c2nc(N(C)C)n(C)n2)cn1 [CBK306858]
viability at 28.5 h, 10 µM (% viability): 90.1%

CN(CC(=O)N1CCN(Cc2ccccc2)CC1)S(=O)(=O)c1ccc2ccccc2c1 [CBK267117]
viability at 28.5 h, 10 µM (% viability): 90.1%

C=C(C)Cn1c(SCC(C)C)nnc1-c1ccccc1C(=O)O [CBK200093]
viability at 28.5 h, 10 µM (% viability): 90.1%

CN1CC(C(=O)N2CCC(c3cc4ccccc4cn3)CC2)CC1=O (stereo not shown) [CBK284870]
viability at 28.5 h, 10 µM (% viability): 96.8%

Cc1ccn(CCNC(=O)c2cccc(N3CCCC3=O)c2)n1 [CBK282642]
viability at 28.5 h, 10 µM (% viability): 105%

COc1ccc(S(=O)(=O)NCCSCc2cccc(Cl)c2)c(Cl)c1Cl [CBK266281]
viability at 28.5 h, 10 µM (% viability): 97.6%

CN1CCN(c2ccc(NC(=O)c3cccc(Br)c3)cc2)CC1 [CBK266140]
viability at 28.5 h, 10 µM (% viability): 97.5%

CC1(C)CC(NC(=O)c2cc3cccnc3[nH]2)CCO1 (stereo not shown) [CBK305467]
viability at 28.5 h, 10 µM (% viability): 82.3%

COc1ccc(Cc2nc(C3CC3)n(CC(F)(F)F)n2)cc1 [CBK307686]
viability at 28.5 h, 10 µM (% viability): 94.9%

CCc1ccc(S(=O)(=O)N2CCN(C(c3ccccc3)c3ccccc3)CC2)cc1 [CBK093948]
viability at 28.5 h, 10 µM (% viability): 98.6%

Cc1nc(C)c(C(=O)N2CC(C(=O)N3CCN(c4ccccc4)CC3)C2)s1 [CBK285666]
viability at 28.5 h, 10 µM (% viability): 93.4%

CN(Cc1ccc(-c2ccc(S(C)(=O)=O)cc2)nc1)C1CCN(C(=O)Oc2ccc(F)cc2)CC1 [CBK166097]
viability at 28.5 h, 10 µM: 91.5%

COc1ccccc1CCNC(=O)c1ncoc1-c1cccs1 [CBK282394]
viability at 28.5 h, 10 µM (% viability): 76.4%

O=C(O)CP(=O)(O)c1ccc(Cl)cc1 [CBK019291]
viability at 28.5 h, 10 µM: 102%

COc1ccc(OC)c(S(=O)(=O)N2CCCC(C(=O)O)C2)c1 (stereo not shown) [CBK269225]
viability at 28.5 h, 10 µM (% viability): 95%

CC(C)OC(=O)N1CCN(C(=O)c2cn(Cc3cccc(S(C)(=O)=O)c3)nn2)CC1 [CBK160994T]
viability at 28.5 h, 10 µM (% viability): 88.5%

COc1ccc(CN2C(=O)CO[C@H]3CN(c4nccc(C)n4)C[C@H]32)cc1 [CBK289056]
viability at 28.5 h, 10 µM (% viability): 86.1%

COc1cc(NC(=O)c2cc([N+](=O)[O-])ccc2N2CCN(C)CC2)c2ncccc2c1 [CBK263034]
viability at 28.5 h, 10 µM (% viability): 90%

CC1CCCCN1C(=O)Cn1ncn2c(cc3ccsc32)c1=O (stereo not shown) [CBK284201]
viability at 28.5 h, 10 µM (% viability): 92.1%

N#CC(C(N)=O)C(c1ccc(Br)cc1)c1c(-c2ccccc2)nn(-c2nc(-c3ccccc3)cs2)c1O (stereo not shown) [CBK262697]
viability at 28.5 h, 10 µM (% viability): 107%

O=C(c1ccccc1NS(=O)(=O)c1cccc2cccnc12)N1CCOCC1 [CBK043338]
viability at 28.5 h, 10 µM (% viability): 87.1%

CN1CCN(C(=O)CNS(=O)(=O)c2ccccc2)CC1 [CBK265767]
viability at 28.5 h, 10 µM (% viability): 92.6%

O=C(Cn1nnc(-c2ccccc2)n1)Nc1ccccc1C(=O)O [CBK264358]
viability at 28.5 h, 10 µM (% viability): 103%

Cc1ccc(C(=O)NNC(=O)/C=C\C(=O)O)cc1 [CBK261842]
viability at 28.5 h, 10 µM (% viability): 86.9%

CC(=O)Nc1cccc(-c2cncc(NCc3cccc(Cl)c3)n2)c1 [CBK065236]
viability at 28.5 h, 10 µM (% viability): 97.2%

S=c1[nH]nc(Cc2cccc3ccccc23)n1-c1ccccc1 [CBK265052]
viability at 28.5 h, 10 µM (% viability): 97.3%

CCCc1[nH]n(-c2ccc([N+](=O)[O-])cc2)c(=O)c1/C=N/N1CCN(C)CC1 [CBK262781]
viability at 28.5 h, 10 µM (% viability): 92.8%

O=C(NC(N1CCCCC1)C(Cl)(Cl)Cl)NC(N1CCCCC1)C(Cl)(Cl)Cl (stereo not shown) [CBK261020]
viability at 28.5 h, 10 µM (% viability): 98.2%

CCOC(=O)CN1C(=O)S/C(=C/c2ccc(OCc3ccc(Br)cc3)cc2)C1=O [CBK264686]
viability at 28.5 h, 10 µM (% viability): 99.1%

O=C(NCCc1ccc(Cl)cc1)C1CCN(C(=O)CCc2ccccc2F)C1 (stereo not shown) [CBK285931]
viability at 28.5 h, 10 µM (% viability): 84.1%

Cc1oc(C(=O)N2CCc3sccc3C2c2ccccc2)cc1CN1CCOCC1 (stereo not shown) [CBK285566]
viability at 28.5 h, 10 µM (% viability): 105%

CN1CCC(N(C)C(=O)NCCc2c[nH]c3ccccc23)C1 (stereo not shown) [CBK156012]
viability at 28.5 h, 10 µM (% viability): 85.4%

O=C(O)CCCN1C(=O)c2ccccc2C1=O [CBK056635]
viability at 28.5 h, 10 µM (% viability): 91.7%

NC(=O)CN1CCCc2ccccc21 [CBK138343]
viability at 28.5 h, 10 µM (% viability): 90%
